In ChEMBL document CHEMBL4196051, “Pyrazole-pyrazoline as promising novel antimalarial agents: A mechanistic study” (Eur J Med Chem, 2018):

Experiments:
Plasmodium falciparum [1] = experiment: Antimalarial activity against chloroquine-resistant Plasmodium falciparum W2 after 48 hrs by LDH assay; assay type: functional, organism-based; settings: W2, 48 h
[2] = Selectivity index, ratio of CC50 for African green monkey Vero cells to EC50 for chloroquine-sensitive Plasmodium falciparum 3D7; assay type: toxicity; settings: read-out: Ratio CC50/EC50
Plasmodium falciparum [3] = experiment: Antimalarial activity against chloroquine-sensitive Plasmodium falciparum 3D7 infected in red blood cells assessed as reduction in mature schizonts formation after 24 hrs by Giemsa-staining based assay; assay type: functional, organism-based; settings: 3D7, 24 h
[4] = Resistance Index, ratio of EC50 for chloroquine-resistant Plasmodium falciparum RKL9 to EC50 for chloroquine-sensitive Plasmodium falciparum 3D7; assay type: functional
Plasmodium falciparum [5] = experiment: Antimalarial activity against chloroquine-resistant Plasmodium falciparum RKL9 infected in red blood cells assessed as reduction in mature schizonts formation after 24 hrs by Giemsa-staining based assay; assay type: functional, organism-based; settings: RKL9, 24 h
[6] = Selectivity index, ratio of CC50 for African green monkey Vero cells to EC50 for chloroquine-resistant Plasmodium falciparum RKL9; assay type: toxicity; settings: read-out: Ratio CC50/EC50
[7] = Cytotoxicity against African green monkey Vero cells assessed as reduction in cell viability after 72 hrs by MTT assay; assay type: cell-based; settings: chlorocebus sabaeus
Heme [8] = experiment: Inhibition of heme crystal growth
Plasmodium falciparum [9] = experiment: Antimalarial activity against chloroquine-sensitive Plasmodium falciparum 3D7 infected in red blood cells assessed as reduction in mature schizonts formation after 72 hrs by Giemsa-staining based assay; assay type: functional, organism-based; settings: 3D7, 72 h
Plasmodium berghei [10] = experiment: Antimalarial activity against Plasmodium berghei NK65 infected in Swiss albino mouse assessed as reduction in parasitemia at 5 mg/kg, po treated up to day 3 measured at day 4 by Giemsa-staining based microscopic analysis relative to control; assay type: functional; parameters: scale not given: the % may be the effect or the level left
Plasmodium berghei [11] = experiment: Antimalarial activity against Plasmodium berghei NK65 infected in Swiss albino mouse assessed as mean survival days at 5 mg/kg, po treated up to day 3 measured over 30 days (reference value: 7.2 days); assay type: functional
Plasmodium falciparum [12] = experiment: Antimalarial activity against Plasmodium falciparum; assay type: functional, organism-based
Heme [13] = experiment: Binding affinity to monomeric heme in DMSO/HEPES buffer solution at pH 5.6 by titration analysis
Plasmodium berghei [14] = experiment: Antimalarial activity against Plasmodium berghei NK65 infected in Swiss albino mouse assessed as reduction in parasitemia at 25 mg/kg, po treated up to day 3 measured at day 4 by Giemsa-staining based microscopic analysis relative to control; assay type: functional; parameters: scale not given: the % may be the effect or the level left
Plasmodium berghei [15] = experiment: Antimalarial activity against Plasmodium berghei NK65 infected in Swiss albino mouse assessed as reduction in parasitemia at 50 mg/kg, po treated up to day 3 measured at day 4 by Giemsa-staining based microscopic analysis relative to control; assay type: functional; parameters: scale not given: the % may be the effect or the level left
Heme [16] = experiment: Binding affinity to monomeric heme in DMSO/HEPES buffer solution at pH 7.4 by titration analysis
Plasmodium berghei [17] = experiment: Antimalarial activity against Plasmodium berghei NK65 infected in Swiss albino mouse assessed as mean survival days at 50 mg/kg, po treated up to day 3 measured over 30 days (reference value: 7.2 days); assay type: functional
mu-oxodimeric heme = experiment: Binding affinity to mu-oxodimeric heme in 0.1M NaOH solution at pH 5.8 by titration analysis
Plasmodium berghei [18] = experiment: Antimalarial activity against Plasmodium berghei NK65 infected in Swiss albino mouse assessed as mean survival days at 25 mg/kg, po treated up to day 3 measured over 30 days (reference value: 7.2 days); assay type: functional

C[n+]1c2ccc(Br)cc2cc2[nH]c3ccc(Br)cc3c21
IC50 (Plasmodium falciparum [1]): 4 µM

COc1ccc(C2=NN(c3ccc(S(N)(=O)=O)cc3)C(c3cn(-c4ccccc4)nc3-c3ccccc3)C2)cc1 (configuration not stated)
selectivity ratio [2]: 51.4
EC50 (Plasmodium falciparum [3]): 1.42 µM
Ratio EC50 [4]: 1.25
EC50 (Plasmodium falciparum [5]): 1.78 µM
selectivity ratio [6]: 51.4
CC50 at 72 h [7]: 40.2 µM

NS(=O)(=O)c1ccc(N2N=C(c3ccc(F)cc3)CC2c2cn(-c3ccccc3)nc2-c2ccccc2)cc1 (configuration not stated)
selectivity ratio [2]: > 225
EC50 (Plasmodium falciparum [3]): 6.67 µM
selectivity ratio [6]: > 225
CC50 at 72 h [7]: > 807 µM

Cc1ccc(-c2nn(-c3ccccc3)cc2C2CC(c3ccccc3)=NN2c2ccc(S(N)(=O)=O)cc2)cc1 (configuration not stated)
selectivity ratio [2]: > 98
EC50 (Plasmodium falciparum [3]): 2.97 µM
selectivity ratio [6]: > 98
CC50 at 72 h [7]: > 162 µM

COc1ccc(C2=NN(c3ccc(S(N)(=O)=O)cc3)C(c3cn(-c4ccccc4)nc3-c3ccc(Cl)cc3)C2)cc1 (configuration not stated)
selectivity ratio [2]: 33.2
EC50 (Plasmodium falciparum [3]): 1.61 µM
Ratio EC50 [4]: 1.31
EC50 (Plasmodium falciparum [5]): 2.12 µM
selectivity ratio [6]: 33.2
CC50 at 72 h [7]: 31.3 µM

Cc1ccc(C2=NN(c3ccc(S(N)(=O)=O)cc3)C(c3cn(-c4ccccc4)nc3-c3ccc(F)cc3)C2)cc1 (configuration not stated)
selectivity ratio [2]: > 73.2
EC50 (Plasmodium falciparum [3]): 2.23 µM
selectivity ratio [6]: > 73.2
CC50 at 72 h [7]: > 90.7 µM

Clc1ccc(COC(Cn2ccnc2)c2ccc(Cl)cc2Cl)c(Cl)c1 (configuration not stated) [MICONAZOLE]
IC50 (Heme [8]): 21.4 µM

NS(=O)(=O)c1ccc(N2N=C(c3ccc(O)cc3)CC2c2cn(-c3ccccc3)nc2-c2ccc(F)cc2)cc1 (configuration not stated)
selectivity ratio [2]: 36.9
EC50 (Plasmodium falciparum [3]): 1.57 µM
Ratio EC50 [4]: 1.29
EC50 (Plasmodium falciparum [5]): 2.02 µM
selectivity ratio [6]: 36.9
CC50 at 72 h [7]: 32 µM

COc1ccc(/C=C(\C#N)c2nc3ccccc3[nH]2)cc1
IC50 (Plasmodium falciparum [9]): 0.069 µM

COc1ccc(C2=NN(c3ccc(S(N)(=O)=O)cc3)C(c3cn(-c4ccccc4)nc3-c3ccc(F)cc3)C2)cc1 (configuration not stated)
selectivity ratio [2]: > 56.4
EC50 (Plasmodium falciparum [3]): 1.65 µM
Ratio EC50 [4]: 1.44
EC50 (Plasmodium falciparum [5]): 2.04 µM
selectivity ratio [6]: > 56.4
CC50 at 72 h [7]: > 53.1 µM

COc1cccc(C2=NN(c3ccc(S(N)(=O)=O)cc3)C(c3cn(-c4ccccc4)nc3-c3ccc(C)cc3)C2)c1OC (configuration not stated)
selectivity ratio [2]: > 60
EC50 (Plasmodium falciparum [3]): 1.61 µM
Ratio EC50 [4]: 0.97
EC50 (Plasmodium falciparum [5]): 1.55 µM
selectivity ratio [6]: > 60
CC50 at 72 h [7]: > 57.4 µM

CCN(CC)CCCC(C)Nc1ccnc2cc(Cl)ccc12 (configuration not stated) [CHLOROQUINE]
Activity (Plasmodium berghei [10]): 97.1%
EC50 (Plasmodium falciparum [3]): 2.97 µM
MSD (Plasmodium berghei [11]): 30 days
EC50 (Plasmodium falciparum [5]): 11.2 µM

COc1ccc(C2=NN(c3ccc(S(N)(=O)=O)cc3)C(c3cn(-c4ccccc4)nc3-c3ccc(OC)cc3)C2)cc1 (configuration not stated)
selectivity ratio [2]: 78.9
EC50 (Plasmodium falciparum [3]): 2.26 µM
selectivity ratio [6]: 78.9
CC50 at 72 h [7]: 104 µM

NS(=O)(=O)c1ccc(N2N=C(c3ccc(Cl)cc3)CC2c2cn(-c3ccccc3)nc2-c2ccccc2)cc1 (configuration not stated)
selectivity ratio [2]: > 111
EC50 (Plasmodium falciparum [3]): 3.35 µM
selectivity ratio [6]: > 111
CC50 at 72 h [7]: > 207 µM

NS(=O)(=O)c1ccc(N2N=C(c3ccc(F)cc3)CC2c2cn(-c3ccccc3)nc2-c2ccc(F)cc2)cc1 (configuration not stated)
selectivity ratio [2]: > 212
EC50 (Plasmodium falciparum [3]): 6.36 µM
selectivity ratio [6]: > 212
CC50 at 72 h [7]: > 753 µM

NS(=O)(=O)c1ccc(N2N=C(c3ccc(Cl)cc3)CC2c2cn(-c3ccccc3)nc2-c2ccc(Cl)cc2)cc1 (configuration not stated)
selectivity ratio [2]: > 99
EC50 (Plasmodium falciparum [3]): 2.8 µM
selectivity ratio [6]: > 99
CC50 at 72 h [7]: > 164 µM

NS(=O)(=O)c1ccc(N2N=C(c3ccc(Cl)cc3Cl)CC2c2cn(-c3ccccc3)nc2-c2ccccc2)cc1 (configuration not stated)
selectivity ratio [2]: > 162
EC50 (Plasmodium falciparum [3]): 4.58 µM
selectivity ratio [6]: > 162
CC50 at 72 h [7]: > 438 µM

NS(=O)(=O)c1ccc(N2N=C(c3ccc(O)cc3)CC2c2cn(-c3ccccc3)nc2-c2ccccc2)cc1 (configuration not stated)
selectivity ratio [2]: > 98
EC50 (Plasmodium falciparum [3]): 3.05 µM
selectivity ratio [6]: > 98
CC50 at 72 h [7]: > 161 µM

Cc1ccc(C2=NN(c3ccc(S(N)(=O)=O)cc3)C(c3cn(-c4ccccc4)nc3-c3ccc(C)cc3)C2)cc1 (configuration not stated)
selectivity ratio [2]: > 52.8
EC50 (Plasmodium falciparum [3]): 1.43 µM
Ratio EC50 [4]: 1.14
EC50 (Plasmodium falciparum [5]): 1.64 µM
selectivity ratio [6]: > 52.8
CC50 at 72 h [7]: > 41.5 µM

NS(=O)(=O)c1ccc(N2N=C(c3ccc(Br)cc3)CC2c2cn(-c3ccccc3)nc2-c2ccc(F)cc2)cc1 (configuration not stated)
selectivity ratio [2]: 25.9
EC50 (Plasmodium falciparum [3]): 3.08 µM
selectivity ratio [6]: 25.9
CC50 at 72 h [7]: 49.4 µM

Clc1ccccc1C(c1ccccc1)(c1ccccc1)n1ccnc1 [CLOTRIMAZOLE]
IC50 (Plasmodium falciparum [12]): 12.9 µM

COc1ccc(C2=NN(c3ccc(S(N)(=O)=O)cc3)C(c3cn(-c4ccccc4)nc3-c3ccc(C)cc3)C2)cc1 (configuration not stated)
log K (Heme [13]): 5.58
Activity (Plasmodium berghei [14]): 68.42%
Activity (Plasmodium berghei [15]): 82.49%
selectivity ratio [2]: > 46.8
EC50 (Plasmodium falciparum [3]): 1.38 µM
log K (Heme [16]): 5.12
MSD (Plasmodium berghei [17]): 19.8 days
Ratio EC50 [4]: 0.94
log K (mu-oxodimeric heme): 5.19
EC50 (Plasmodium falciparum [5]): 1.31 µM
selectivity ratio [6]: > 46.8
CC50 at 72 h [7]: > 36.6 µM
MSD (Plasmodium berghei [18]): 13.4 days
